Results published in PubChem BioAssay AID652053 (Broad Institute, 2013).

What follows are compounds tested on Huh7 psiCHECK-miR122 Renilla luciferase reporter, 48 h (assay: suppression of miR-122 activity, Renilla luciferase sensor – cell-based, Huh7 psiCHECK-miR122, cherry-pick, dose response (AID 652053)).

| Structure (SMILES) | AC40 |
| --- | --- |
| C[C@@H]1CN([C@H](C)CO)C(=O)Cc2cc(NS(=O)(=O)c3ccc(Cl)cc3)ccc2O[C@@H]1CN(C)C(=O)Nc1ccc(C(F)(F)F)cc1 | 6.38 µM |
| Cc1ccc(S(=O)(=O)Nc2ccc3ncccc3c2)cc1 | 11.6 µM |
| Cc1ccc(C(=O)NCCSc2ccc(Cl)cc2)cc1S(=O)(=O)Nc1ccccc1 | 4.3 µM |
| Cc1cccc(NS(=O)(=O)c2cc3c4c(c2)CCC(=O)N4CCC3)c1 | 1.94 µM |
| COc1ccccc1NS(=O)(=O)c1cc(NC(=O)c2sccc2C)ccc1N1CCCC1 | 1.12 µM |
| COc1ccc(NC(=O)C2CCC2)cc1S(=O)(=O)Nc1cc(C)ccc1Br | 0.985 µM |
| O=C(Cc1ccccc1)N1C[C@H]2[C@@H](c3ccccc31)[C@@H](CO)N2C(=O)c1ccc(F)cc1 | 5.37 µM |
| COc1cccc(NS(=O)(=O)c2cc(C)ccc2OC)c1 | 1.53 µM |
| N#Cc1c(NC(=O)c2ccccc2)sc2c1CCC2 | 29 µM |
| CSc1ccc(S(=O)(=O)NC2CCCCCC2)cc1 | 1.72 µM |
| CCCNC(=O)C[C@H]1CC[C@H]2[C@H](COc3ccc(NC(=O)Cc4cccs4)cc3C(=O)N2C)O1 | 2.21 µM |
| CCCNC(=O)NNC(=O)c1cc(-c2ccc3c(c2)OCO3)nc2ccccc12 | 2.65 µM |
| COc1ccc(S(=O)(=O)N(C)C[C@H]2Oc3ccc(NC(=O)Nc4ccc(C(F)(F)F)cc4)cc3C(=O)N([C@H](C)CO)C[C@H]2C)cc1 | 1.81 µM |
| N#Cc1ccc(NC(=S)N2CCC3CC2c2cc(-c4ccc5c(c4)OCO5)ccc23)cc1 (centres undefined) | 0.31 µM |
| Cc1ccc(C)c(S(=O)(=O)Nc2ccc(C(=O)N3CCC3)cc2)c1 | 2.82 µM |
| CCc1ccc(NS(=O)(=O)c2cc(OC)ccc2OC)cc1 | 0.866 µM |
| OC(c1ccc(Cl)c(F)c1)c1ncc(-c2ccccc2F)[nH]1 (centres undefined) | 2.04 µM |
| CCOC(=O)N1CCN(S(=O)(=O)c2cc(OCC)ccc2OCC)CC1 | 4.56 µM |
| COc1ccc(C2CCCCCN2Cc2nc3ccccc3c(=O)n2CC(N)=O)cc1 (centres undefined) | 9.73 µM |
| c1ccc(-n2nnnc2-c2cccc3ccccc23)cc1 | 10.6 µM |
| CCCCNS(=O)(=O)c1ccc(NC(=O)c2cccs2)cc1 | 1.09 µM |
| C[C@H](CO)N1C[C@H](C)[C@@H](CN(C)Cc2ccc(C(F)(F)F)cc2)Oc2c(NC(=O)c3cnccn3)cccc2C1=O | 1.43 µM |
| Cc1ccc(NC(=O)C(=O)c2c(-c3ccccc3)cc3ccccn23)cc1S(=O)(=O)N1CCOCC1 | 27.9 µM |
| C[C@@H]1CN([C@H](C)CO)C(=O)c2cccc(NC(=O)C3CC3)c2O[C@H]1CN(C)Cc1ccc(C(F)(F)F)cc1 | 4.08 µM |
| Cc1nn(C)c(C)c1S(=O)(=O)NCc1cccs1 | 13.9 µM |

| Structure (SMILES) | AC40 |
| --- | --- |
| O=C(c1ccccc1F)N1C[C@H]2[C@@H](c3ccccc31)[C@@H](CO)N2C(=O)c1ccc(F)cc1 | 2.4 µM |
| Cc1cc(C)c(S(=O)(=O)Nc2ccc(O)cc2)cc1C | 3.45 µM |
| CCOc1cc(C)c(C(C)C)cc1S(=O)(=O)NCc1ccccn1 | 0.392 µM |
| COc1ccccc1N/C(=N/S(=O)(=O)c1ccc(C)cc1)c1ccccc1 | 9.99 µM |
| CCC(C)(C)NC(=O)C(c1cccn1C)N(C(=O)Cn1nnc2ccccc21)c1ccc(OC)cc1OC (centres undefined) | 21 µM |
| COc1ccc(S(=O)(=O)N2CC[C@@H]3[C@H](CO)N(C)c4ccc(-c5ccc(F)cc5)cc4[C@@H]32)cc1 | 7.49 µM |
| Cc1noc(C)c1NC(=O)Nc1cccc2c1O[C@@H](CN(C)Cc1ccc(Cl)c(Cl)c1)[C@@H](C)CN([C@H](C)CO)C2=O | 0.826 µM |
| Cc1ccc(-c2n[nH]c(=O)c3ccccc23)cc1S(=O)(=O)Nc1ccc(F)cc1 | 0.293 µM |
| COc1cc(S(=O)(=O)NCc2cccnc2)c(OC)cc1Br | 4.72 µM |
| CCOc1ccc(Br)cc1S(=O)(=O)Nc1cccc(S(=O)(=O)N(C)c2ccccc2)c1 | 3.18 µM |
| CCN(Cc1ccccc1)C(=O)c1[nH]c2ccc(OC)cc2c1C | 12 µM |
| O=S(=O)(NCCc1ccccc1)c1cccc(S(=O)(=O)N2CCOCC2)c1 | 6 µM |
| CCOC(=O)c1cc(S(=O)(=O)NCCc2ccccc2)cn1C | 3.84 µM |
| CC(C)CNS(=O)(=O)c1ccc2c(c1)OCCO2 | 5.9 µM |
| C[C@H](CO)N1C[C@H](C)[C@@H](CN(C)Cc2ccc(C(=O)Nc3ccccc3N)cc2)Oc2c(NS(=O)(=O)c3ccccc3)cccc2C1=O | 20.2 µM |
| COc1ccccc1NS(=O)(=O)c1cccc(NC(=O)c2[nH]c(C)c(C(C)=O)c2C)c1 | 7.17 µM |
| CCOc1cc(C)c(S(=O)(=O)Nc2ccc3cn[nH]c3c2)cc1C | 1.24 µM |
| C[C@H]1CN([C@@H](C)CO)C(=O)c2cccc(NC(=O)Nc3ccccc3)c2O[C@@H]1CN(C)Cc1ccc(C(=O)Nc2ccccc2N)cc1 | 11.3 µM |
| C[C@@H]1CN([C@H](C)CO)C(=O)c2cccc(NC(=O)c3ccc(-c4nccs4)cc3)c2O[C@@H]1CN(C)Cc1ccc(C(=O)Nc2ccccc2N)cc1 | 6.24 µM |
| Cc1ccc(NS(=O)(=O)c2cc3c4c(c2)CC(=O)N4CCC3)cc1C | 2.61 µM |
| Cc1ccnc(NCc2cc(C)ccc2O)c1 | 29.8 µM |
| CN1C(=O)c2cc(NC(=O)Cc3ccccc3)ccc2OC[C@@H]2O[C@@H](CC(=O)NCC3CC3)CC[C@@H]21 | 0.732 µM |
| NC(=O)Cn1cc(/C=N\NS(=O)(=O)c2ccc(Cl)cc2)c2ccccc21 | 3.75 µM |
| COc1cc(NS(=O)(=O)c2ccc3c(c2)C(C)(C)C(=O)N3C)cc(OC)c1 | 2.85 µM |
| CC(=O)N1CCCc2cc(S(=O)(=O)Nc3ccc4c(c3)OCO4)ccc21 | 6.16 µM |

| Structure (SMILES) | AC40 |
| --- | --- |
| CCOc1ccc(S(=O)(=O)NCc2ccco2)c2ccccc12 | 3.06 µM |
| O=C1NC(=O)C(CCc2ccncc2)(Cc2cccc(Cl)c2Cl)C(=O)N1c1ccc(Br)cc1 (centres undefined) | 2.98 µM |
| Cc1ccc(NS(=O)(=O)c2cccc(C(=O)N(C)Cc3cccs3)c2)cc1 | 3.04 µM |
| CCOc1ccc(NS(=O)(=O)c2ccc(NC(=S)NC(=O)CC(C)C)cc2)cc1 | 1.68 µM |
| O=S(=O)(Nc1ccc2ccccc2c1)c1ccccc1 | 12.5 µM |
| Cc1cc2c(cc1S(=O)(=O)NCCc1ccccc1)NC(=O)CO2 | 4.41 µM |
| Cc1ccc(S(=O)(=O)Nc2cccc(S(=O)(=O)N3CCCC3)c2)cc1C | 1.03 µM |
| CCC(=O)NC(=S)Nc1ccc(S(=O)(=O)NC2CCCCC2)cc1 | 1.1 µM |
| O=C(C1CCCCC1)N1[C@H](CO)[C@@H]2c3ccccc3N(S(=O)(=O)c3ccccc3)C[C@@H]21 | 3.09 µM |
| O=S(=O)(NCCc1ccccc1)c1ccc(F)cc1Br | 1.45 µM |
| CCOc1cc(C)c(Cl)cc1S(=O)(=O)NCc1ccco1 | 1.79 µM |
| C[C@H](CO)N1C[C@H](C)[C@@H](CN(C)CC2CCCCC2)Oc2c(NC(=O)C3CC3)cccc2C1=O | 0.602 µM |
| COc1ccc(S(=O)(=O)Nc2ccc(F)cc2)c(C)c1C | 0.922 µM |
| O=C(NCC1CCCO1)C(c1cccs1)N(Cc1cccs1)C(=O)Cn1nnc(-c2cccs2)n1 (centres undefined) | 13.5 µM |
| CCCC(=O)Nc1nc2ccc(S(=O)(=O)N3CCCCC3)cc2s1 | 8.84 µM |
| COc1ccc(-c2cc(C(=O)N(C)Cc3ccccc3F)c3ccccc3n2)cc1OC | 14.7 µM |
| Cc1ccc(C)c(S(=O)(=O)NC2CCS(=O)(=O)C2)c1 (centres undefined) | 8.66 µM |
| C[C@H](CO)N1C[C@H](C)[C@H](CN(C)Cc2ccc(C(=O)Nc3ccccc3N)cc2)Oc2c(NC(=O)Nc3ccccc3)cccc2C1=O | 30.8 µM |
| S=C(Nc1ccc(Cl)c(Cl)c1)NC1CCCCC1 | 1.37 µM |
| COc1ccccc1NS(=O)(=O)c1cc(C(=O)NCc2ccco2)ccc1C | 13.5 µM |
| COc1ccc(S(=O)(=O)Nc2ccc(S(=O)(=O)N3CCOCC3)cc2)cc1 | 14.7 µM |
| C[C@H](CO)N1C[C@H](C)[C@@H](CN(C)Cc2ccc3c(c2)OCO3)Oc2c(NC(=O)c3ccncc3)cccc2C1=O | 13.1 µM |
| COc1cccc(C2(c3cccc(OC)c3)CC2C(=O)Nc2ccc(F)cc2)c1 (centres undefined) | 2.68 µM |
| Cc1cccc(C(O)c2ncc(-c3ccccc3F)[nH]2)c1C (centres undefined) | 5.74 µM |
| Cc1ccccc1S(=O)(=O)N1CC[C@@H]2[C@@H](CO)N(C)c3ccc(-c4ccccc4)cc3[C@@H]21 | 4.05 µM |

| Structure (SMILES) | AC40 |
| --- | --- |
| COc1ccc(NC(=O)CCNS(=O)(=O)c2cc(Br)ccc2Br)cc1S(N)(=O)=O | 2.1 µM |
| CCN(CC)c1ccc(NC(=O)c2ccccn2)cc1S(=O)(=O)Nc1ccccc1OC | 4.42 µM |
| COc1ccc(NS(=O)(=O)c2cc(Br)cc3c2N(C(C)=O)CC3)cc1 | 2.67 µM |
| COCCNC(=O)c1ccc(C)c(S(=O)(=O)Nc2ccc(C)cc2)c1 | 6.38 µM |
| O=C(NC1CCCC1)C(c1ccccc1F)N(C(=O)Cc1cccs1)c1ccc2c(c1)OCCO2 (centres undefined) | 25.9 µM |
| O=C(Cc1ccccc1)N1CC[C@@H]2[C@@H](CO)Nc3ccc(-c4cccc(F)c4)cc3[C@@H]21 | 7.15 µM |
| Cc1ccc(-c2cnc(C3CC3)o2)cc1S(=O)(=O)Nc1ccccc1 | 3.08 µM |
| COc1c(S(=O)(=O)NCCCn2ccnc2)ccc(Cl)c1Cl | 21.3 µM |
| COc1ccccc1CNC(=O)C[C@H]1CC[C@H]2[C@@H](COc3ccc(NS(=O)(=O)c4ccc(C)cc4)cc3C(=O)N2C)O1 | 21.5 µM |
| Cc1ccc(C(C)(C)C)cc1S(=O)(=O)Nc1cccc(S(=O)(=O)NC2=NCCC2)c1 | 5.86 µM |
| C[C@H](CO)N1C[C@H](C)[C@@H](CN(C)Cc2ccc(Oc3ccccc3)cc2)Oc2c(NC(=O)C3CCOCC3)cccc2C1=O | 1.31 µM |
| C/C(=N\Nc1ccccn1)c1ccc(S(=O)(=O)NCc2ccco2)cc1 | 6.97 µM |
| O=S(=O)(Nc1ccc(S(=O)(=O)N2CCCC2)cc1)c1ccccc1Br | 4.34 µM |
| COc1ccc(C(=O)Nc2ccc(S(=O)(=O)NCc3ccco3)cc2)cc1OC | 4.75 µM |
| C[C@H](CO)N1C[C@H](C)[C@@H](CN(C)Cc2ccc3c(c2)OCO3)Oc2c(NC(=O)Nc3ccccc3)cccc2C1=O | 8.95 µM |
| Oc1ccc(/C=N/NP(=S)(c2ccccc2)c2ccccc2)cc1 | 7.07 µM |
| C[C@H](CO)N1C[C@H](C)[C@H](CN(C)Cc2ccc(C(=O)Nc3ccccc3N)cc2)Oc2ccc(NS(=O)(=O)c3ccccc3)cc2CC1=O | 3.45 µM |
| O=S(Cc1ccccc1)CC(O)(c1ccc(Cl)cc1)c1ccc(Cl)cc1 (centres undefined) | 10.5 µM |
| CCNS(=O)(=O)c1ccc2c3c(cccc13)C(=O)N2 | 11.6 µM |
| Cc1ccc(C)c(S(=O)(=O)Nc2ccc3cn[nH]c3c2)c1 | 3.58 µM |
| C[C@H](CO)N1C[C@H](C)[C@H](CN(C)CC2CCCCC2)Oc2c(NC(=O)C3CCOCC3)cccc2C1=O | 1.95 µM |
| CCn1c(=O)c2cc(S(=O)(=O)NC3CCCCC3)ccc2n(CC)c1=O | 3.31 µM |
| O=C1COc2ccc(S(=O)(=O)Nc3ccc(F)cc3)cc2N1 | 5.23 µM |
| CCOC(=O)c1c(C)[nH]c(C)c1S(=O)(=O)NCCc1ccc(SC)cc1 | 0.686 µM |
